Test [1] deals with Syk (356-635 amino acids) catalytic domain (Homo sapiens (Human), UniProt P43405). Put plainly: Inhibition of enzymatic Syk kinase activity (radiometric). Format: biochemical. The following applies: read-out: IC50 Syk. The procedure, abridged: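 Radiometric filter-binding format: 32P transfer from γ-32P-ATP onto pG4T, scintillation-counted after acid washes of P81 paper. Syk kinase domain (356-635), 0.035–7.5 ng per reaction, was exposed to compound for 30 minutes at room temperature before a 10-minute, 30° C. reaction with ATP (100 μM stock). Inhibition derived from counts with versus without compound.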

Another test deals with JAK2 (Homo sapiens (Human), UniProt O60674). Kind of test: Inhibition of enzymatic JAK2 kinase activity (TR-FRET). In kind it is biochemical. To be noted: read-out: IC50 JAK. The procedure, abridged: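 TR-FRET read-out (Eu antibody donor, Ulight poly Glu-Tyr acceptor, 665/615 nm ratio) after a 60 min RT kinase reaction with ATP, begun following 30 min compound–enzyme preincubation. Stopped by EDTA; inhibition expressed as 100 minus % activity of positive control.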
Sequence of JAK2 (O60674 808-1132): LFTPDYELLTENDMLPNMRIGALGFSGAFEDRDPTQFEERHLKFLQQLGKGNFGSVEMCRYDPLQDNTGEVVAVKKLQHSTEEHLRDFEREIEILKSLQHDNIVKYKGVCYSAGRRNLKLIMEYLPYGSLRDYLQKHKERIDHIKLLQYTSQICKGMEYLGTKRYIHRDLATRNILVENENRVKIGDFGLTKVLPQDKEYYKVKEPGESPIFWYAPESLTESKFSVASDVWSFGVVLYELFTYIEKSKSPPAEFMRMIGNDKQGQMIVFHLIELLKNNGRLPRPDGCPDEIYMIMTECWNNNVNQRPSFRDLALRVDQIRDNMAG

Turning to `CCN1CCN(C(=O)COc2ccc(Nc3nc(N4CCCCCC4)nc4cn[nH]c(=O)c34)cc2)CC1` [Example 269, 2-(azepan-1-yl)-4-((4-(2-(4-ethylpiperazin-1-yl)-2-oxoethoxy)phenyl)amino)pyrimido[4,5-d]pyridazin-5(6H)-one], the IC50 (in test [1]; at JAK2) was < 0.05 µM in each case.

With `CCN1CCN(C(=O)COc2ccc(Nc3nc(N4CCC(CC#N)CC4)nc4cn[nH]c(=O)c34)cc2)CC1` [Example 270, 2-(1-(4-((4-(2-(4-ethylpiperazin-1-yl)-2-oxoethoxy)phenyl)amino)-5-oxo-5,6-dihydropyrimido[4,5-d]pyridazin-2-yl)piperidin-4-yl)acetonitrile], the IC50 (in test [1]; on JAK2) was < 0.05 µM each time.

Consider `CN1CCN(C(=O)COc2ccc(Nc3nc(N4CCC(CC#N)CC4)nc4cn[nH]c(=O)c34)cc2)CC1` [Example 271, 2-(1-(4-((4-(2-(4-methylpiperazin-1-yl)-2-oxoethoxy)phenyl)amino)-5-oxo-5,6-dihydropyrimido[4,5-d]pyridazin-2-yl)piperidin-4-yl)acetonitrile], for which the IC50 is < 0.01 µM in test [1] and < 0.05 µM at JAK2.

Consider `O=c1[nH]ncc2nc(N3CCCCCC3)nc(Nc3ccc(N4CCCC(CCO)C4)cc3)c12` (stereo not shown) [Example 272, 2-(azepan-1-yl)-4-((4-(3-(2-hydroxyethyl)piperidin-1-yl)phenyl)amino) pyrimido[4,5-d]pyridazin-5(6H)-one], for which the results for the IC50 (in test [1]; on JAK2) were < 0.05 µM and < 0.01 µM, respectively.

As to `O=c1[nH]ncc2nc(N3CCCCCC3)nc(Nc3ccc(N4CCCC(O)C4)cc3)c12` (stereo not shown) [Example 281, 2-(azepan-1-yl)-4-((4-(3-hydroxypiperidin-1-yl)phenyl)amino) pyrimido[4,5-d]pyridazin-5(6H)-one], the results for the IC50 (in test [1]; at JAK2) were < 0.05 µM and < 0.01 µM, respectively.

Consider `N#CCC1CCN(c2nc(Nc3ccc(N4CCCC(O)C4)cc3)c3c(=O)[nH]ncc3n2)CC1` (stereo not shown) [Example 282, 2-(1-(4-((4-(3-hydroxypiperidin-1-yl)phenyl)amino)-5-oxo-5,6-dihydropyrimido[4,5-d]pyridazin-2-yl)piperidin-4-yl)acetonitrile], for which the IC50 in test [1] is < 0.05 µM; on JAK2, < 0.01 µM.

As to `O=c1[nH]ncc2nc(N3CCCCCC3)nc(Nc3ccc(N4CCCC(CO)C4)cc3)c12` (stereo not shown) [Example 285, 2-(azepan-1-yl)-4-((4-(3-(hydroxymethyl)piperidin-1-yl)phenyl)amino) pyrimido[4,5-d]pyridazin-5(6H)-one], the IC50 (in test [1]; at JAK2) was < 0.05 µM in each case.

As for `N#CCC1CCN(c2nc(Nc3ccc(N4CCCC(CCO)C4)cc3)c3c(=O)[nH]ncc3n2)CC1` (stereo not shown) [Example 286, 2-(1-(4-((4-(3-(2-hydroxyethyl)piperidin-1-yl)phenyl)amino)-5-oxo-5,6-dihydropyrimido[4,5-d]pyridazin-2-yl)piperidin-4-yl)acetonitrile], the IC50 (in test [1]; at JAK2) was < 0.05 µM throughout.

`COC1CCN(c2ccc(Nc3nc(N4CCCCCC4)nc4cn[nH]c(=O)c34)cc2)CC1` [Example 288, 2-(azepan-1-yl)-4-((4-(4-methoxypiperidin-1-yl)phenyl)amino) pyrimido[4,5-d]pyridazin-5(6H)-one]: the 50% inhibitory concentration (IC50) (in test [1]; on JAK2) was < 0.05 µM each time.

For the compound `O=c1[nH]ncc2nc(N3CCCCCC3)nc(Nc3ccc(N4CCC(F)CC4)cc3)c12` [Example 289, 2-(azepan-1-yl)-4-((4-(4-fluoropiperidin-1-yl)phenyl)amino)pyrimido[4,5-d]pyridazin-5(6H)-one], the IC50 in test [1] is < 0.05 µM; at JAK2, < 0.01 µM.

As to `N#CCC1CCN(c2nc(Nc3ccc(OC4CCN(CCO)CC4)cc3)c3c(=O)[nH]ncc3n2)CC1` [Example 291, 2-(1-(4-((4-((1-(2-hydroxyethyl)piperidin-4-yl)oxy)phenyl)amino)-5-oxo-5,6-dihydropyrimido[4,5-d]pyridazin-2-yl)piperidin-4-yl)acetonitrile], the IC50 (in test [1]; on JAK2) was < 0.05 µM in each case.

By IC50 is commonly meant the midpoint of a concentration-inhibition curve.

These data come from patent US10183944B2 (Asana Biosciences, LLC, priority 2011, dated 2019).
